The nature of data set [1]: Dissolution of hair dye moieties in neat ketal solvents and storage at room temperature (Example 7). It counts as physicochemical. The text has this: The respective hair dye compositions and their methods of manufacturing are discussed in detail below.
Data set [2] can be described thus: Saturated solubility of oxidation dye intermediates in hair dye formulations (UV-Vis against calibration curve). The following applies: 10 minutes stirring, three replications.

For `Nc1cccc(O)c1` [m-Aminophenol], the dissolution in ketal entry in data set [1] (5% solids in Et-LGK at room temperature) and in data set [1] (5% solids in Et-LPK at 80° C.) was “dissolved” in each case.
Turning to `Oc1cccc(O)c1` [Resorcinol], the dissolution in ketal entry in data set [1] (10% solids in Bu-LGK at 80° C. with agitation), in data set [1] (10% solids in Et-LGK at 80° C. with agitation) and in data set [1] (10% solids in Et-LPK at room temperature with agitation) was “dissolved” each time.
On to `Nc1ccc(N)cc1` [p-phenylenediamine], for which the dissolution in ketal entry was “did not completely dissolve” in data set [1] (1% solids in Et-LPK at 80° C.); “dissolved” in data set [1] (5% solids in Bu-LGK at 80° C.); “dissolved” in data set [1] (5% solids in Et-LGK at 80° C.); “did not completely dissolve” in data set [1] (5% solids in Et-LPK at 80° C.); “partially dissolved” in data set [1] (25% solids in Bu-LGK at 80° C.). Moreover, the solubility after storage entry in data set [1] (5% and 1% solids in Et-LPK, storage at room temperature) was “a precipitant remained”; in data set [1] (5% solids in Et-LGK (dissolved at 80° C.), 24 hours of storage at room temperature), “still soluble”. Also, the “Average Solubility” value in data set [2] (in formulation 5A (7% Et-LGK), pH 10.2, 27° C.) is 0.07 % wt./wt; in data set [2] (in formulation 5B (7% Et-LGK), pH 8.5, 27° C.), 0.07 % wt./wt; in data set [2] (in formulation 6A (7% Et-LPK), pH 10.2, 27° C.) it was 0 % wt./wt; in data set [2] (in formulation 6B (7% Et-LPK), pH 8.5, 27° C.), less than 0.01 % wt./wt.

The values above are taken from patent US8632612B2, “Compositions for dyeing keratin fibers” (Segetis, Inc., priority 2010, dated 2014).
